The text below walks through data of ChEMBL document CHEMBL5291721, “A preclinical secondary pharmacology resource illuminates target-adverse drug reaction associations of marketed drugs” (Nat Commun, 2023).

The target in experiment [1] is Vascular endothelial growth factor receptor 2 (Homo sapiens, UniProt P35968). It is filed as functional.
The target of the next experiment is Histamine H2 receptor (Homo sapiens, UniProt P25021). Type of experiment: functional, cell-based.
In another experiment the target is D(1A) dopamine receptor (Homo sapiens, UniProt P21728). Type of experiment: functional, cell-based.
A further experiment concerns the target T1, Adenosine receptor A3 (Homo sapiens, UniProt P0DMS8).
T1 sequence (P0DMS8 whole entry): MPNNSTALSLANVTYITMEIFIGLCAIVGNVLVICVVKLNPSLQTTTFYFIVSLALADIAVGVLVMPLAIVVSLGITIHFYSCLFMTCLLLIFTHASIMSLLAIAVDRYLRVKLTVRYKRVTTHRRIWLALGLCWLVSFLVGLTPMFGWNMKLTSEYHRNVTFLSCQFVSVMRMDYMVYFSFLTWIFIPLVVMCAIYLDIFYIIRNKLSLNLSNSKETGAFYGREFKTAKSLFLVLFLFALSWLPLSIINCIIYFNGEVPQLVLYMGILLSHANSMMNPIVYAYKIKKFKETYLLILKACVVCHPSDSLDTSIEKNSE

Experiment [2] addresses Growth hormone secretagogue receptor type 1 (Homo sapiens, UniProt Q92847).
Experiment [3] addresses T2, Prostaglandin G/H synthase 1 (Rattus norvegicus, UniProt Q63921).
T2 sequence (Q63921 whole entry): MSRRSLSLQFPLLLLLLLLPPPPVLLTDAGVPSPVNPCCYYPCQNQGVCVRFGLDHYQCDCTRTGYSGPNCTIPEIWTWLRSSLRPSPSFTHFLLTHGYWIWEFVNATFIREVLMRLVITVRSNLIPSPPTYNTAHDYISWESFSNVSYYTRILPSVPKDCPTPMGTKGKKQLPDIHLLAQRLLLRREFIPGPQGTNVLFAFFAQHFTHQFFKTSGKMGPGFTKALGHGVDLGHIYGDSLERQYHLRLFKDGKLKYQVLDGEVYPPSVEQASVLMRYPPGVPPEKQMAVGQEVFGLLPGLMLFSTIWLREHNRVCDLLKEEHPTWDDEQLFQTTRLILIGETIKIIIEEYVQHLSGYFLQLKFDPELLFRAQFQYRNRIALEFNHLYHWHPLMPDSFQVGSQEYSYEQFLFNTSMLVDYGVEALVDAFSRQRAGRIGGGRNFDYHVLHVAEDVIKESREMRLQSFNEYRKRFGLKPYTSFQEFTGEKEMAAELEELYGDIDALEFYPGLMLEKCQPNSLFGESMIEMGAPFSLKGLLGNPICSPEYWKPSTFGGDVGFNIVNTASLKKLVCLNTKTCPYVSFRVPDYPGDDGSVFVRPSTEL
It is filed as functional.

Experiment [4] deals with T3, 5-hydroxytryptamine receptor 2C (Homo sapiens, UniProt P28335).
T3 sequence (P28335 whole entry): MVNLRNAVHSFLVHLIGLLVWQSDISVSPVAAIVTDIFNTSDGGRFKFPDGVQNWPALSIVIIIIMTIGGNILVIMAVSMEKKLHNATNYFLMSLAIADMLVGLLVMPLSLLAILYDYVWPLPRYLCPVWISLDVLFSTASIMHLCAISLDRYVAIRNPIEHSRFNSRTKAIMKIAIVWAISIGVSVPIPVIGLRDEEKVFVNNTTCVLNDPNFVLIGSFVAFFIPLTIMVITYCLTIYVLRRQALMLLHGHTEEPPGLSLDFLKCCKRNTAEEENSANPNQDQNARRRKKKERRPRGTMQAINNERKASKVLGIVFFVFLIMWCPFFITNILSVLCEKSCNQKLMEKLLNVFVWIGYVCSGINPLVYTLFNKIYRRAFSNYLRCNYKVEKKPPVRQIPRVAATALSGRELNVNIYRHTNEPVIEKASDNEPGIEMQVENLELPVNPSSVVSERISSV

The target of experiment [5] is 5-hydroxytryptamine receptor 2B (Homo sapiens, UniProt P41595). Type of experiment: functional, cell-based.
The target of experiment [6] is T4, Alpha-2A adrenergic receptor (Homo sapiens, UniProt P08913).
T4 sequence (P08913 whole entry): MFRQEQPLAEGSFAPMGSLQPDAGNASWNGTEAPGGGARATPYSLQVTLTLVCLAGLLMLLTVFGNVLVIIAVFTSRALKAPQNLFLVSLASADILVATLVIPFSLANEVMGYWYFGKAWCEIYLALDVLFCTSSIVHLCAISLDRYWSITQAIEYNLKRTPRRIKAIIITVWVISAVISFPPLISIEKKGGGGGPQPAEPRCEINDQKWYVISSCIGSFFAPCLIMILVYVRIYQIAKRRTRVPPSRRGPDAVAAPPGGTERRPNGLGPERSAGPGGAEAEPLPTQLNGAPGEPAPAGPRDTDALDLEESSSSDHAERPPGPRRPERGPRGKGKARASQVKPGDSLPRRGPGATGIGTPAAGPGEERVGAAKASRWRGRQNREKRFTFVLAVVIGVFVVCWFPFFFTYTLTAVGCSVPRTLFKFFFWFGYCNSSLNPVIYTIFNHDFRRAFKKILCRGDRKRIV
It is filed as functional, cell-based.

Experiment [7] deals with Neuronal acetylcholine receptor subunit alpha-4 (Homo sapiens, UniProt P43681).
Experiment [8] has as its target T5, 5-hydroxytryptamine receptor 3A (Homo sapiens, UniProt P46098).
T5 sequence (P46098 whole entry): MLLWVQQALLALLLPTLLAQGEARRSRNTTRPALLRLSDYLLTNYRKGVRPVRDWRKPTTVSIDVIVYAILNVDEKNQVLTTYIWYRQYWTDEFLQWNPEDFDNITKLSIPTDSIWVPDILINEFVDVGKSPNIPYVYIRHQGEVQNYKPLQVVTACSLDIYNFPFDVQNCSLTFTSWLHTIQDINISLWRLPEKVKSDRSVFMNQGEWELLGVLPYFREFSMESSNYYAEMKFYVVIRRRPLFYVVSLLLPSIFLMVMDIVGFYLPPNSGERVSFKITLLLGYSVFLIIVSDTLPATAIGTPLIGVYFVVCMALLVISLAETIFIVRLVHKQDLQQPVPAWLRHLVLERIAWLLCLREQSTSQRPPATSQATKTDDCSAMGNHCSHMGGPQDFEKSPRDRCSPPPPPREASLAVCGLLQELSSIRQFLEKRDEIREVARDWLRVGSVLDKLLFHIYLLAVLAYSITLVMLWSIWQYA
Type of experiment: functional.

For orientation: AC50 means the midpoint of the concentration-response curve, whichever way the signal moves. A lower AC50 goes with activity at low concentration.
Note: assay procedure not described here.

Histamine H2 receptor, sequence (P25021 whole entry): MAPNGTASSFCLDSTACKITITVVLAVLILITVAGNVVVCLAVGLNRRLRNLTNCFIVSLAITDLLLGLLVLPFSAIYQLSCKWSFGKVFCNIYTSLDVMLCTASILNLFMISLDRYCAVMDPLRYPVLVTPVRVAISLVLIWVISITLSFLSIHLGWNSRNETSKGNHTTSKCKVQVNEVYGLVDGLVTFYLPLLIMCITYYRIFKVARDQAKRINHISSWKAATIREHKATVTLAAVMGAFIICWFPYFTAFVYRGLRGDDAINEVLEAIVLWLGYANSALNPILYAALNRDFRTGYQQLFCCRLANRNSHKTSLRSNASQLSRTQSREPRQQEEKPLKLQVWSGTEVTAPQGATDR
Vascular endothelial growth factor receptor 2, sequence (P35968 whole entry): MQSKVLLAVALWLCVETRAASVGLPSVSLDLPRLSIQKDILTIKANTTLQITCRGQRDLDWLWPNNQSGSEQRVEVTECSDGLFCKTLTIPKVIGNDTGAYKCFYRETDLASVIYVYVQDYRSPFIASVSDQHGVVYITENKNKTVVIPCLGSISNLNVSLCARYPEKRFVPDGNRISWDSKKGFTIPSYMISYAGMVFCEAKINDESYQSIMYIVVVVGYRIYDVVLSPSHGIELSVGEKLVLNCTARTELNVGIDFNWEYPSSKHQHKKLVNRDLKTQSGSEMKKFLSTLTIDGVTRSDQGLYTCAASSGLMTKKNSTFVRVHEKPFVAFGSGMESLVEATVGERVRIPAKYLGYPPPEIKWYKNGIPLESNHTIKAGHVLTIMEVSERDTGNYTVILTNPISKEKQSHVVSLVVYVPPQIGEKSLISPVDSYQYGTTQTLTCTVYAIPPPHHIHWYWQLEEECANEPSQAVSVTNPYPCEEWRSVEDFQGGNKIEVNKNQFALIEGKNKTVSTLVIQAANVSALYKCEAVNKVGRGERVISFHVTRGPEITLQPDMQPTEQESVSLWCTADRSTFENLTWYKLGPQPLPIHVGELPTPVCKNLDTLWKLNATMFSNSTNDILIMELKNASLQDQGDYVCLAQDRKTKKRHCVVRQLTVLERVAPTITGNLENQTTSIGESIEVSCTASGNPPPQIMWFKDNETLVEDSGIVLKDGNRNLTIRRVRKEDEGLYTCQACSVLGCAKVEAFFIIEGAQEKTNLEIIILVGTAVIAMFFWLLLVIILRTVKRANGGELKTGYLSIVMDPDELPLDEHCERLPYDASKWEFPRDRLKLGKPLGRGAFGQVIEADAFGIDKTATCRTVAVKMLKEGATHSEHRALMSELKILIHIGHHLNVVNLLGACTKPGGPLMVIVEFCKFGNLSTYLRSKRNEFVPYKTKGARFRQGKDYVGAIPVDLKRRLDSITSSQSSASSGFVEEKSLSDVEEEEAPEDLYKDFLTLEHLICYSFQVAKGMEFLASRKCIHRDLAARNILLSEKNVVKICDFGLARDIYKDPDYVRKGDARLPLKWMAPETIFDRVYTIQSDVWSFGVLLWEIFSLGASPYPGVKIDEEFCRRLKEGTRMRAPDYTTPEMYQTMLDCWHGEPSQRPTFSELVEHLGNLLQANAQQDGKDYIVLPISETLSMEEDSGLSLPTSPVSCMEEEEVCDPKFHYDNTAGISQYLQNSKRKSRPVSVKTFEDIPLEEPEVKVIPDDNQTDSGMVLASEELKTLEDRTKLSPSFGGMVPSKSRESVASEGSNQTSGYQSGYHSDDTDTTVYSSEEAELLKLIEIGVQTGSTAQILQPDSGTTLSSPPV
5-hydroxytryptamine receptor 2B, sequence (P41595 whole entry): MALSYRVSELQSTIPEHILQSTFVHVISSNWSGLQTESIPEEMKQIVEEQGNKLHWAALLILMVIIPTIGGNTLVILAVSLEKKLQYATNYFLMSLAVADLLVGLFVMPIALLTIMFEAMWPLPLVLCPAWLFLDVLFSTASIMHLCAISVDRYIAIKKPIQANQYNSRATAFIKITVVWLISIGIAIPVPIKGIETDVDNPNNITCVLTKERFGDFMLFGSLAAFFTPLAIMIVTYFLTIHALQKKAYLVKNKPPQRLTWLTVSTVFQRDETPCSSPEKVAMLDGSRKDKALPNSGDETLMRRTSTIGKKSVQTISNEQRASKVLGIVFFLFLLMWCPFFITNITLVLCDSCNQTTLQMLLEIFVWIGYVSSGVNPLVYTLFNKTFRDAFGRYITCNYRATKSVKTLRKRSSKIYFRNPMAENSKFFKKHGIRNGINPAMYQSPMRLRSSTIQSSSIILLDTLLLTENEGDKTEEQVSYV
D(1A) dopamine receptor, sequence (P21728 whole entry): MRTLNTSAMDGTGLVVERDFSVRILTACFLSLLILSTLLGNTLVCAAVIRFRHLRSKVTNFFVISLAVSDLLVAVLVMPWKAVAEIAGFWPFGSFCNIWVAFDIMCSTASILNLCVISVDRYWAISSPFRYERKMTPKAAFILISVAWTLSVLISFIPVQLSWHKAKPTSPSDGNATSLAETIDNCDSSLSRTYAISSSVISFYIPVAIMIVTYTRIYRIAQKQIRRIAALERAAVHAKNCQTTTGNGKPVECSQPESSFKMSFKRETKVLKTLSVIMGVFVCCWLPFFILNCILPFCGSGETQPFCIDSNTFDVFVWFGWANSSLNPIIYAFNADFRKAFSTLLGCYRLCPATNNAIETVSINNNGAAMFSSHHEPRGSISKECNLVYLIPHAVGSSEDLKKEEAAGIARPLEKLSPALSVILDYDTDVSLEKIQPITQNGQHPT
Neuronal acetylcholine receptor subunit alpha-4, sequence (P43681 whole entry): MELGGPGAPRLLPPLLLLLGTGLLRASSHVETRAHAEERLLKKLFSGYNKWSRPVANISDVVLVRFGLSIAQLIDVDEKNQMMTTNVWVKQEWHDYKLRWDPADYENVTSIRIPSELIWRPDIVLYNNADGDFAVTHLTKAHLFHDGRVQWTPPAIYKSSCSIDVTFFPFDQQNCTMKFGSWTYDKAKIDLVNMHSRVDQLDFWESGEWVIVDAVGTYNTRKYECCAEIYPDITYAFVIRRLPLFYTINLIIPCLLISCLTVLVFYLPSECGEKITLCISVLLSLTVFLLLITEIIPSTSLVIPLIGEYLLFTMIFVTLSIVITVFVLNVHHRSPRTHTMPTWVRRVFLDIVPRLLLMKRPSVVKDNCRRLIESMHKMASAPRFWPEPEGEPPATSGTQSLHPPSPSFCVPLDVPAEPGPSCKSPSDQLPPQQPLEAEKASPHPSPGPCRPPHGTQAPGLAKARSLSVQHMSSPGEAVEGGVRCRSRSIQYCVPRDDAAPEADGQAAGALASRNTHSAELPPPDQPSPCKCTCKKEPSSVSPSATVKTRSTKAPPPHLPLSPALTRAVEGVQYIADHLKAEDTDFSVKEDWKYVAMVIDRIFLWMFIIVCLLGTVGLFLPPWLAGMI
Growth hormone secretagogue receptor type 1, sequence (Q92847 whole entry): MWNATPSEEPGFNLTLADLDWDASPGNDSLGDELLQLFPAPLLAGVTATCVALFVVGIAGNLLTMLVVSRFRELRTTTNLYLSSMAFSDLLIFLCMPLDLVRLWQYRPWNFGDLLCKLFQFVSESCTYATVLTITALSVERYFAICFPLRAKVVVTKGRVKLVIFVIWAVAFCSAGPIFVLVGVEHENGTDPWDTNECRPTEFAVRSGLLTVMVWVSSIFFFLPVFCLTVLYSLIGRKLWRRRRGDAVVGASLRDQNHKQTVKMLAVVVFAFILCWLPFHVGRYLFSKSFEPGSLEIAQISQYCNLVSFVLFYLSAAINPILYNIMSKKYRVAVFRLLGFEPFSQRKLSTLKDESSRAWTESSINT

In [1], `CC(C1=C(CCN(C)C)Cc2ccccc21)c1ccccn1` (configuration not stated) gave an AC50 above 30 µM.

Regarding `CC(=O)OC(C)OC(=O)C(C)c1ccc(-c2ccccc2)c(F)c1` (configuration not stated), the AC50 in experiment [1] is above 30 µM.

In the case of `C[C@H](N)C(=O)O` [ALANINE], the AC50 in experiment [1] is above 30 µM.

`O=C1c2c(O)cccc2Cc2cccc(O)c21` [ANTHRALIN] gave an AC50 in experiment [1] of 6.14 µM. This lies in the single-digit micromolar range.

On to `COC(=O)C1=C(C)NC(C)=C(C(=O)O[C@H]2CCN(Cc3ccccc3)C2)[C@H]1c1cccc([N+](=O)[O-])c1` [BARNIDIPINE], for which the AC50 in [1] was above 30 µM.

On to `CCCCOc1ccc(CC(=O)NO)cc1` [BUFEXAMAC], for which, in experiment [1], the half-maximal activity concentration (AC50) is above 30 µM.

`Cc1nnc(SCC2=C(C(=O)O)N3C(=O)[C@@H](NC(=O)Cn4cc(Cl)c(=O)c(Cl)c4)[C@H]3SC2)s1` [CEFAZEDONE] had a concentration at half-maximal activity (AC50) in experiment [1] of 10.1 µM.

For the compound `O=c1oc2ccccc2c(O)c1Cc1c(O)c2ccccc2oc1=O` [DICUMAROL], the AC50 is above 10 µM at Histamine H2 receptor; above 10 µM at D(1A) dopamine receptor; above 10 µM on Adenosine receptor A3; above 10 µM in experiment [2]; above 30 µM in experiment [3]; above 30 µM in experiment [4]. In addition, the AC50 in experiment [5] is above 10 µM; in experiment [6], above 10 µM; in [7], above 10 µM; in [8], above 30 µM.

For `O=C(O)CSCC(=O)NC1CCSC1=O` (configuration not stated) [ERDOSTEINE], the half-maximal activity concentration (AC50) (on Histamine H2 receptor; on D(1A) dopamine receptor; at Adenosine receptor A3; in experiment [2]; in experiment [3]; in experiment [4]) was above 30 µM throughout. The concentration at half-maximal activity (AC50) in [5], in [6], in [7] and in [8] was above 30 µM in each case.

`COc1cccc(N(C)C(=S)Oc2ccc3c(c2)CCCC3)n1` [LIRANAFTATE]: the AC50 (on Histamine H2 receptor; on D(1A) dopamine receptor; at Adenosine receptor A3; in [2]; in [3]; in experiment [4]) was above 30 µM in each case. Besides, the AC50 in experiment [5], in experiment [6], in [7] and in experiment [8] was above 30 µM in each case.

Turning to `C#C[C@]1(O)CC[C@H]2[C@@H]3CCc4cc(OC)ccc4[C@H]3CC[C@@]21C` [MESTRANOL], the AC50 at Histamine H2 receptor was above 30 µM; on D(1A) dopamine receptor, above 10 µM; on Adenosine receptor A3, above 30 µM; in experiment [2], above 10 µM; in experiment [3] it was above 10 µM; in [4], above 30 µM. Further, the concentration at half-maximal activity (AC50) was above 10 µM in experiment [5], above 10 µM in experiment [6], above 10 µM in experiment [7] and above 30 µM in experiment [8].

Regarding `N=C(N)c1ccc2cc(OC(=O)c3ccc(N=C(N)N)cc3)ccc2c1` [NAFAMOSTAT], the AC50 was above 30 µM at Histamine H2 receptor; above 30 µM at D(1A) dopamine receptor; 21 µM at Adenosine receptor A3; 21 µM in experiment [2]; above 30 µM in [3]; above 30 µM in experiment [4]. Further, the AC50 in experiment [5] was above 30 µM; in experiment [6] it was above 30 µM; in experiment [7], above 30 µM; in experiment [8], 14 µM.

Take `O=C(O)c1cc(O)c2c3nc4ccccc4oc-3cc(=O)c2n1` [PIRENOXINE]: the half-maximal activity concentration (AC50) was above 30 µM at Histamine H2 receptor; above 30 µM at D(1A) dopamine receptor; above 30 µM on Adenosine receptor A3; above 30 µM in [2]; above 30 µM in experiment [3]; 2.3 µM in experiment [4]. Further, the AC50 is above 30 µM in experiment [5], above 30 µM in experiment [6], above 30 µM in experiment [7] and 2.6 µM in experiment [8].

In the case of `NS(=O)(=O)c1cc(C(=O)O)cc(N2CCCC2)c1Oc1ccccc1` [PIRETANIDE], the AC50 (at Histamine H2 receptor; at D(1A) dopamine receptor; at Adenosine receptor A3; in experiment [2]; in [3]; in experiment [4]) was above 30 µM in each case. Also, the half-maximal activity concentration (AC50) in experiment [5], in experiment [6], in experiment [7] and in experiment [8] was above 30 µM throughout.

For the compound `COCCCOc1ccnc(C[S+]([O-])c2nc3ccccc3[nH]2)c1C` (configuration not stated) [RABEPRAZOLE], the AC50 on Histamine H2 receptor is above 10 µM; on D(1A) dopamine receptor, above 10 µM; on Adenosine receptor A3 it was 2.2 µM; in [2], above 30 µM; in experiment [3], above 30 µM; in experiment [4], above 30 µM. The AC50 in experiment [5] was above 10 µM; in [6], above 10 µM; in experiment [7], above 10 µM; in experiment [8] it was 6 µM.

With `CC(C)=CCOc1ccc(/C=C/C(=O)c2ccc(OCC=C(C)C)cc2OCC(=O)O)cc1` [SOFALCONE], the concentration at half-maximal activity (AC50) on Histamine H2 receptor was above 30 µM; at D(1A) dopamine receptor, above 30 µM; on Adenosine receptor A3 it was 5.5 µM; in experiment [2], above 30 µM; in [3], above 30 µM; in experiment [4] it was above 30 µM. Besides, the AC50 in [5], in [6], in [7] and in [8] was above 30 µM in each case.

For `CN(C)c1cc(NC(=O)CNC(C)(C)C)c(O)c2c1C[C@H]1C[C@H]3[C@H](N(C)C)C(O)=C(C(N)=O)C(=O)[C@@]3(O)C(O)=C1C2=O` [TIGECYCLINE], the AC50 at Histamine H2 receptor was above 30 µM; at D(1A) dopamine receptor, above 30 µM; on Adenosine receptor A3, 26.9 µM; in [2] it was above 30 µM; in experiment [3] it was 0.16 µM; in experiment [4], above 30 µM. For the same compound, the AC50 in [5], in experiment [6], in experiment [7] and in [8] was above 30 µM in each case.

Regarding `OCCN1CCN(CC/C=C2/c3ccccc3Sc3ccc(Cl)cc32)CC1` [ZUCLOPENTHIXOL], the AC50 is above 10 µM at Histamine H2 receptor; above 10 µM at D(1A) dopamine receptor; above 10 µM at Adenosine receptor A3; above 10 µM in experiment [2]; above 10 µM in experiment [3]; 1 µM in experiment [4]. Also, the AC50 in experiment [5], in [6], in [7] and in experiment [8] was above 10 µM throughout.
